Assay results from paper PMC4184853, “Biohybrid Polymer-Antimicrobial Peptide Medium against Enterococcus faecalis” (PLoS ONE, 2014).
Read-outs that look alike come from different tables or passages of the source. Non-standard residues stand in square brackets, D forms with d. Residues, ends and D or L forms follow the SMILES beside them. *: point of attachment. Palmitoyl = CCCCCCCCCCCCCCCC(=O)*

Tests used:
Format in all cases: cell-based, Enterococcus faecalis
E. faecalis (ATCC #v583) [1] = test system: E. faecalis (ATCC #v583)
Procedure: (§1) E. faecalis (ATCC #v583), was cultured overnight in 5 ml brain-heart infusion (BHI) (Difco, Detroit, MI, USA) broth supplemented with 2 mg/ml vancomycin (Sigma-Aldrich), at 37°C under aerobic conditions. The top 4 ml were transferred to a fresh test tube and the optical density (OD) was determined according to the specific experiment.
(§2) The antibacterial activity of the peptides was examined using the microdilution assay. Briefly, the bacterial suspension (at OD 0.3) was diluted at a ratio of 1∶1000. Aliquots of 150 µl of bacterial suspension were added to 50 µl of peptide dilutions in phosphate buffered saline (PBS) (Sigma-Aldrich) (in triplicate for each concentration) in a 96-well plate (Nunc 96 microtiter plates, Roskilde, Denmark). The optical density (595 nm) in each well was recorded every 20 min using a microplate reader (VERSAmax tunable microplate reader, molecular devices, Sunnyvale, CA, USA) at 37°C for 18–24 hrs. The minimal inhibitory concentration (MIC) was determined as the concentration which inhibited visible growth after 18–24 hrs.

E. faecalis (ATCC #v583) [2] = assay: Growth curves with soluble peptide: percent growth reduction and generation time; conditions: concentrations below 5 µg/ml
Procedure: as §1
as §2, with “Aliquots of 150 µl of bacterial suspension were added to 50 µl of peptide dilutions in phosphate buffered saline (PBS) (Sigma-Aldrich) (in triplicate for each concentration) in a 96-well plate (Nunc 96 microtiter plates, Roskilde, Denmark).” left out
The presented data are the mean and standard deviation of triplicates of a representative experiment repeated three times. The growth mean, and multiple comparisons of growth inhibition by AMP (compared with the growth of untreated bacteria) were calculated from each growth curve using Student’s t-test. […]
Figure 1 E. faecalis growth is inhibited by C16-KGGK but not by hBD3. Growth of E. faecalis was measured (see Materials and Methods) in the presence of increasing concentrations of hBD3 (A) or of the lipopeptide KGGK (B). […]

E. faecalis biofilm [3] = assay: Antibiofilm activity, ATP bioluminescence; conditions: biofilm exposed 72 hrs, 24 well plates; compared with untreated E. faecalis
Procedure: (§3) Antibiofilm activity was tested on E. faecalis biofilms grown for 72 hrs. Biofilm was formed in microtiter plates (24 well plates for the ATP bioluminescence assay and 96 well plates for the crystal violet biomass assay and confocal laser spectroscopy). Saliva was collected from one donor and DL-Dithiolthreitol (DTT) (Thermo Scientific, Abu-Gosh, Israel) was added to 2.5 mM. The suspension was kept at 4°C for 10 min and then centrifuged for 15 min at 6,500×g. The supernatant was transferred to a fresh sterile tube and diluted to 25% with sterile double distilled water (DDW). The diluted saliva was disinfected using a 0.2 µm vacuum-driven filter (0.22 µm, […], Jet biofil, Belgium). […] Bacterial metabolism in the attached biofilm was assessed using ATP bioluminescence. Biofilm mass was measured using crystal violet as described below.
Bacterial killing was evaluated by measuring intracellular ATP levels, an energy parameter commonly used as an indicator of cell injury and viability. […] ATP levels were determined using an ATP bioluminescence assay kit (CLS 2, Roch Diagnostics, Mannheim, Germany). In a 96 microtiter plate designed for luminescence assay (Thermo Scientific, NUNC, 96-well optical Btm Plt white, Rochester, NY, USA) a 100 µl volume of the samples was added to 6 wells for each tested group. […]

E. faecalis biofilm [4] = assay: Bacterial vitality in biofilm, live/dead staining with confocal microscopy; conditions: 72 hrs contact during biofilm formation
Procedure: as §3
Confocal laser scanning microscopy (CLSM) was used to explore the vitality of bacteria in the different depth layers of the biofilm. […] To read the results directly, the wells were coated with emulsion oil to prevent dehydration. Fluorescence emission was detected using a Zeiss LSM 410 confocal laser scanning microscope (Carl Zeiss Microscopy, Jena, Germany). Red fluorescence was measured at 630 nm and green fluorescence at 520 nm; objective lenses: x60/oil, 1.4 numerical aperture. […]

E. faecalis biofilms = assay: Antibiofilm activity, crystal violet biomass assay; conditions: biofilm grown 72 hrs in saliva-coated 96 well plates in presence of test material
Procedure: as §3
The total biofilm yield was assessed using crystal violet staining as follows. […] The acetic acid was transferred to wells of a new 96-well microtiter plate that was placed in a microplate reader and absorbance (OD595 nm) was measured.
Figure 3 Effect of the antimicrobial peptides on the development of E. faecalis biofilms. […] The biofilm was stained with 1% crystal violet measured at OD 595 nm (see Materials and Methods). […]

`CC(C)C[C@H](NC(=O)[C@H](CC(C)C)NC(=O)[C@@H](CCCCN)NC(=O)[C@H](CC(C)C)NC(=O)[C@H](CC(C)C)NC(=O)[C@H](CCCCN)NC(=O)[C@@H](CCCCN)NC(=O)[C@@H](CC(C)C)NC(=O)[C@H](CC(C)C)NC(=O)[C@@H](CCCCN)NC(=O)[C@H](CCCCN)NC(=O)[C@H](CC(C)C)NC(=O)[C@@H](CC(C)C)NC(=O)[C@H](CCCCN)NC(=O)[C@@H](N)CC(C)C)C(N)=O` [Amp-1D] (H-LK[dL]LK[dK]L[dL][dK]KLL[dK]LL-NH2; N-terminus assumed) showed an MIC (E. faecalis (ATCC #v583) [1]; ATCC #v583) greater than 25 µg/mL.

With `CCCCCCCCCCCCCCCC(=O)N[C@@H](CCCCN)C(=O)N[C@@H](C)C(=O)N[C@@H](C)C(=O)N[C@@H](CCCCN)C(N)=O` [C16-KAAK] (Palmitoyl-KAAK-NH2) the MIC (E. faecalis (ATCC #v583) [1]; ATCC #v583) was 12.5 to 25 µg/mL.

With `CCCCCCCCCCCCCCCC(=O)N[C@@H](CCCCN)C(=O)NCC(=O)NCC(=O)N[C@@H](CCCCN)C(N)=O` [C16-KGGK] (Palmitoyl-KGGK-NH2) the MIC (E. faecalis (ATCC #v583) [1]; ATCC #v583) was 4 to 5 µg/mL, the “concentration causing complete growth inhibition” value (E. faecalis (ATCC #v583) [1]; planktonic E. faecalis, microdilution, 18–24 hrs) was 5 µg/mL and the “growth of E. faecalis at sub-inhibitory concentrations” value (E. faecalis (ATCC #v583) [2]) was “accelerated”. The “ATP levels in biofilm (luminescence)” value (E. faecalis biofilm [3]) was “relatively low compared with that in the untreated control” and the “vitality of biofilm bacteria (live/dead stain, CLSM)” value (E. faecalis biofilm [4]) was “induced death in the biofilm bacteria”.

For `CCCCCCCCCCCCCCCC(=O)N[C@@H](CCCCN)C(=O)N[C@@H](CCCCN)C(=O)N[C@@H](CCCCN)C(N)=O` [C16-KKK], the MIC (E. faecalis (ATCC #v583) [1]; ATCC #v583) was 6 to 12.5 µg/mL and the “anti-biofilm effect (biofilm mass, crystal violet, OD 595 nm)” value (E. faecalis biofilms) was “showed anti-biofilm activity”.

`CCCCCCCCCCCCCCCC(=O)N[C@@H](CCCCN)C(=O)N[C@@H](CC(C)C)C(=O)N[C@@H](CC(C)C)C(=O)N[C@@H](CCCCN)C(N)=O` [C16-KLLK] (Palmitoyl-KLLK-NH2) was tested, and the MIC (E. faecalis (ATCC #v583) [1]; ATCC #v583) was 6 to 12.5 µg/mL.

“GIINTLQKYYCRVRGGRCAVLSCLPKEEQIGKCSTRGRKCCRRKK [hBD3, Human recombinant β-defensin 3 obtained from PeproTech, reference compound]” gave an MIC (E. faecalis (ATCC #v583) [1]; planktonic E. faecalis ATCC v583, BHI, 37°C, 18–24 hrs, OD 595 nm, triplicate per concentration) greater than 20 µg/mL.
